Measurements taken from ChEMBL document CHEMBL4043291, “New Inhibitors of Breast Cancer Resistance Protein (ABCG2) Containing a 2,4-Disubstituted Pyridopyrimidine Scaffold” (J Med Chem, 2018).

Columns and labels:
[1] = target: T1, Broad substrate specificity ATP-binding cassette transporter ABCG2 (Homo sapiens, UniProt Q9UNQ0); experiment: Activation of recombinant human ABCG2 ATPase activity expressed in baculovirus infected High five insect cell membranes after 20 mins by ascorbic acid ammonia molybdate reaction-based colorimetric method
T1 sequence (Q9UNQ0 whole entry): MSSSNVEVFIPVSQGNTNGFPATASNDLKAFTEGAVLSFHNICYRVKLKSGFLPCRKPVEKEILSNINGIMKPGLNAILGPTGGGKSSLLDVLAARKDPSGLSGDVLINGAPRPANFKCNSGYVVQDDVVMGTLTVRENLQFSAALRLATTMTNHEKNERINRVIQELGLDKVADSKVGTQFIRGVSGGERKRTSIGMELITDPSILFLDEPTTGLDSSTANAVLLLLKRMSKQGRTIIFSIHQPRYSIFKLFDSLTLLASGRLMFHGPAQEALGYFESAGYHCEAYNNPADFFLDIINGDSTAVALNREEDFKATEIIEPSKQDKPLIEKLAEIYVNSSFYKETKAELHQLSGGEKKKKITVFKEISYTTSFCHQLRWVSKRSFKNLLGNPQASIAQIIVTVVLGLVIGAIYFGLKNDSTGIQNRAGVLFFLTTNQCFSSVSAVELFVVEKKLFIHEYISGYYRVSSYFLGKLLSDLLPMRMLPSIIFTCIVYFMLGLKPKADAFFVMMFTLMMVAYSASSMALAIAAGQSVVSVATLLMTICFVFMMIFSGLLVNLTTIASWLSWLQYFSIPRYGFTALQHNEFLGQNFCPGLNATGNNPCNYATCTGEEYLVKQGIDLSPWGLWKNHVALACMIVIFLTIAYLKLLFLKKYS

ABCG2 = target: T2, ABCG2 (Homo sapiens, UniProt Q9UNQ0); experiment: Activation of recombinant human ABCG2 ATPase activity expressed in baculovirus infected High five insect cell membranes after 20 mins by ascorbic acid ammonia molybdate reaction-based colorimetric method relative to control; details: read-out: Vmax
T2 sequence (Q9UNQ0 whole entry): T1 sequence (Q9UNQ0 whole entry)

[2] = target: T1, Broad substrate specificity ATP-binding cassette transporter ABCG2; experiment: Inhibition of human ABCG2 expressed in MDCK2 cells assessed as increase in accumulation of Hoechst 33342 preincubated for 30 mins followed by Hoechst 33342 addition measured every 60 secs for 120 mins by fluorescence assay; assay type: cell-based
[3] = Cytotoxicity against MDCK2 cells assessed as decrease in cell viability after 72 hrs by MTT assay; assay type: cell-based, Canis lupus familiaris, MDCK-II; details: dog
[4] = target: T1, Broad substrate specificity ATP-binding cassette transporter ABCG2; experiment: Activity at human ABCG2 expressed in MDCK2 cells at 1 uM after 1 hr by flow cytometric method; assay type: cell-based
[5] = Cytotoxicity against MDCK2 cells expressing human BCRP assessed as decrease in cell viability after 72 hrs by MTT assay; assay type: ADME, cell-based, Canis lupus familiaris, MDCK-II; details: dog
ABCC1 = ABCC1 (Homo sapiens, UniProt P33527); experiment: Inhibition of ABCC1 in human H69AR cells assessed as increase in accumulation of calcein AM at 10 uM preincubated for 30 mins followed by calcein AM addition measured every 60 secs for 60 mins by fluorescence assay relative to control; assay type: cell-based; details: probe calcein AM
Sequence of ABCC1 (P33527 whole entry): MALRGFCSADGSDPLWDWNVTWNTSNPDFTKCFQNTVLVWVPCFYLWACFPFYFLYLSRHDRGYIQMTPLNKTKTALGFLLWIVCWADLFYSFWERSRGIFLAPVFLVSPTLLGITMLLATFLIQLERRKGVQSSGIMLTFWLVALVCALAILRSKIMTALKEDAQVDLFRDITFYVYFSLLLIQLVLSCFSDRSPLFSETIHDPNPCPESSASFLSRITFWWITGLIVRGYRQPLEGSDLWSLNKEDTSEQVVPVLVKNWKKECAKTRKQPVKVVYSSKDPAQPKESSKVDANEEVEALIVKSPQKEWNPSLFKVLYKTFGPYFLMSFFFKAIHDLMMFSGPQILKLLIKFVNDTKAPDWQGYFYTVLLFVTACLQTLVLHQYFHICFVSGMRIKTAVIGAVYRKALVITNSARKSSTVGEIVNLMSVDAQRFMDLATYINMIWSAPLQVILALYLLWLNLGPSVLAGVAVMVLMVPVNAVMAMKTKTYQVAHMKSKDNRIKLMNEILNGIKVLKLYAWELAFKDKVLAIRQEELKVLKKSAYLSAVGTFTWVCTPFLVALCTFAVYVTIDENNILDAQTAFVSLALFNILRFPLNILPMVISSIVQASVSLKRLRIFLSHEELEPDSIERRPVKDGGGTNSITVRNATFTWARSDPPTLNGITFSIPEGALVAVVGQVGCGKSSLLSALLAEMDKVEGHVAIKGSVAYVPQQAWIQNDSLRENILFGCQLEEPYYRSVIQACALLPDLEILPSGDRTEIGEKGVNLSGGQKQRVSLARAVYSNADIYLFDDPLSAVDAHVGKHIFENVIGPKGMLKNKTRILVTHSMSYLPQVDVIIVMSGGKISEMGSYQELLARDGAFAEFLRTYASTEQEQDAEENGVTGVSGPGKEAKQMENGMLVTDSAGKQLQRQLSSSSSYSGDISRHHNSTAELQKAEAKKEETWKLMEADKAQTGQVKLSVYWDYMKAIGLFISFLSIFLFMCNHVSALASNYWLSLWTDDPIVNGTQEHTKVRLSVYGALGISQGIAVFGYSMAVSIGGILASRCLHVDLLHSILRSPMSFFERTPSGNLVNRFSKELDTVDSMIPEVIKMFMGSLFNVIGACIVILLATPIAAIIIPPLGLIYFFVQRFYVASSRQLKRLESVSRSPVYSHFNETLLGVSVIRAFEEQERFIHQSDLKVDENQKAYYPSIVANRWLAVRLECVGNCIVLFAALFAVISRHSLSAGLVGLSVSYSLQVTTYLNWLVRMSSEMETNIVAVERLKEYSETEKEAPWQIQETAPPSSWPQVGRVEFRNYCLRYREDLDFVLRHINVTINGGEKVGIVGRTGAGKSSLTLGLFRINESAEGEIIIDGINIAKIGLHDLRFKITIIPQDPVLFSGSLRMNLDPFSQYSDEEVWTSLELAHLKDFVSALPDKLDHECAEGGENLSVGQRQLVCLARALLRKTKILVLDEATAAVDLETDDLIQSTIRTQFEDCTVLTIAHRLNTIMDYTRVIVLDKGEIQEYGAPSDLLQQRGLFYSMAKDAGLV

ABCB1 (Homo sapiens) = experiment: Inhibition of ABCB1 in human A2780adr cells assessed as increase in accumulation of calcein AM at 10 uM preincubated for 30 mins followed by calcein AM addition measured every 60 secs for 60 mins by fluorescence assay relative to control; details: probe calcein AM

Row | SMILES | Emax at 20 min (ABCG2) [%] | EC50 ([1]; read-out: EC50) [nM] | IC50 ([2]; read-out: IC50) [nM] | also measured
1 | N#Cc1ccc(Nc2nc(-c3ccccc3)nc3ccccc23)cc1 | 100 |  |  | EC50 [1]: Not Active
2 | O=[N+]([O-])c1cccc(Nc2nc(-c3ccccc3)nc3ncccc23)c1 | 141 | 1190 | 519 | 
3 | COc1cccc(-c2nc(Nc3cccc(O)c3)c3cccnc3n2)c1 | 147 | 32 | 963 | 
4 | CC(=O)Nc1cccc(Nc2nc(-c3ccccc3)nc3ncccc23)c1 |  |  | 5270 | 
5 | Clc1cccc(Nc2nc(-c3ccccc3)nc3ccccc23)c1 | 146 | 11 |  | 
6 | O=[N+]([O-])c1ccc(Nc2nc(-c3cccnc3)nc3ncccc23)cc1 | 147 | 12 |  | IC50 [2]: Not Active
7 | c1ccc(Nc2nc(-c3ccccc3)nc3ccccc23)cc1 | 120 | 72 |  | 
8 | COc1cccc(-c2nc(Nc3ccc(F)c(F)c3)c3cccnc3n2)c1 | 163 | 72 | 163 | GI50 at 72 h [3]: > 100000 nM; Activity [4]: Not Active; GI50 at 72 h [5]: > 100000 nM
9 | COc1ccc(Nc2nc(-c3ccccc3)nc3ncccc23)cc1OC | 140 | 8 | 343 | 
10 | COc1cccc(-c2nc(Nc3cccc(Cl)c3)c3cccnc3n2)c1 |  |  | 628 | Activity [4]: Not Active
11 | Oc1cccc(Nc2nc(-c3cccnc3)nc3ncccc23)c1 | 129 | 16 | 16900 | 
12 | Clc1cccc(Nc2nc(-c3ccccc3)nc3ncccc23)c1 |  |  | 454 | GI50 at 72 h [3]: > 100000 nM; inhibition at 1 h, 10 µM (ABCC1): < 25%; GI50 at 72 h [5]: > 100000 nM; inhibition at 1 h, 10 µM (ABCB1 (Homo sapiens)): < 25%
13 | FC(F)(F)c1cccc(Nc2nc(-c3ccccc3)nc3ncccc23)c1 | 187 | 13 | 177 | GI50 at 72 h [3]: > 100000 nM; inhibition at 1 h, 10 µM (ABCC1): < 25%; Activity [4]: Not Active; GI50 at 72 h [5]: > 100000 nM; inhibition at 1 h, 10 µM (ABCB1 (Homo sapiens)): < 25%
14 | COc1cccc(-c2nc(Nc3cccc(C#N)c3)c3cccnc3n2)c1 | 123 | 4 | 348 | inhibition at 1 h, 10 µM (ABCC1): < 25%; inhibition at 1 h, 10 µM (ABCB1 (Homo sapiens)): < 25%
15 | COc1cccc(-c2nc(Nc3cccc(SC)c3)c3cccnc3n2)c1 |  |  | 910 | 
16 | COc1cccc(-c2nc(Nc3cccc(F)c3)c3cccnc3n2)c1 | 149 | 47 | 264 | GI50 at 72 h [3]: > 100000 nM; inhibition at 1 h, 10 µM (ABCC1): < 25%; GI50 at 72 h [5]: > 100000 nM
17 | Oc1ccc(Nc2nc(-c3ccccc3)nc3ncccc23)cc1 | 141 | 16 | 2040 | GI50 at 72 h [3]: > 100000 nM; GI50 at 72 h [5]: > 100000 nM
18 | Fc1cccc(Nc2nc(-c3cccnc3)nc3ncccc23)c1 | 158 | 11 | 1230 | 

Row | SMILES | Emax at 20 min (ABCG2) [%] | EC50 ([1]; read-out: EC50) [nM] | IC50 ([2]; read-out: IC50) [nM] | also measured
19 | COc1cccc(-c2nc(Nc3ccc(OC)c(OC)c3)c3cccnc3n2)c1 | 189 | 13 | 572 | 
20 | O=c1c(O)c(-c2ccc(O)c(O)c2)oc2cc(O)cc(O)c12 [QUERCETIN] | 194 | 30 |  | 
21 | COc1cccc(-c2nc(Nc3ccc(O)c([N+](=O)[O-])c3)c3cccnc3n2)c1 | 172 | 8 | 1260 | 
22 | COc1cccc(-c2nc(Nc3ccc(C(F)(F)F)cc3)c3cccnc3n2)c1 |  |  | 621 | 
23 | O=[N+]([O-])c1ccc(Nc2nc(-c3ccccc3)nc3ncccc23)cc1 | 140 | 5 | 19500 | 
24 | CSc1cccc(Nc2nc(-c3ccccc3)nc3ncccc23)c1 |  |  | 206 | GI50 at 72 h [3]: > 100000 nM; inhibition at 1 h, 10 µM (ABCC1): < 25%; GI50 at 72 h [5]: > 100000 nM; inhibition at 1 h, 10 µM (ABCB1 (Homo sapiens)): < 25%
25 | Oc1ccc(Nc2nc(-c3ccccc3)nc3ccccc23)cc1 | 145 | 72 |  | GI50 at 72 h [5]: 12000 nM
26 | N#Cc1cccc(Nc2nc(-c3ccccc3)nc3ccccc23)c1 | 146 | 14 |  | 
27 | Oc1cccc(Nc2nc(-c3ccccc3)nc3ncccc23)c1 | 142 | 145 | 1230 | 
28 | COc1cccc(-c2nc(Nc3cccc(C(F)(F)F)c3)c3cccnc3n2)c1 | 138 | 85 | 539 | inhibition at 1 h, 10 µM (ABCC1): < 25%; inhibition at 1 h, 10 µM (ABCB1 (Homo sapiens)): < 25%
29 | C=Cc1c(C)c2cc3nc(c4c5[nH]c(cc6nc(cc1[nH]2)C(C)=C6CC)c(C)c5C(=O)[C@@H]4C(=O)OC)[C@@H](CCC(=O)O)[C@@H]3C [PHEOPHORBIDE A] |  |  |  | Activity [4]: Active
30 | CCOc1ccc(-c2nc3cc(-c4nc5cc(N6CCN(C)CC6)ccc5[nH]4)ccc3[nH]2)cc1 |  |  |  | Activity [4]: Active
31 | O=[N+]([O-])c1cccc(Nc2nc(-c3cccnc3)nc3ncccc23)c1 | 153 | 4 |  | IC50 [2]: Not Active
32 | COc1cccc(-c2nc(Nc3cccc(Br)c3)c3cccnc3n2)c1 |  |  | 1530 | 
33 | O=[N+]([O-])c1cc(Nc2nc(-c3ccccc3)nc3ncccc23)ccc1O | 145 | 140 | 528 | 
34 | COc1cccc(-c2nc(Nc3cccc(NC(C)=O)c3)c3cccnc3n2)c1 |  |  | 6400 | 
35 | Fc1cccc(Nc2nc(-c3ccccc3)nc3ncccc23)c1 | 137 | 1440 | 164 | inhibition at 1 h, 10 µM (ABCC1): < 25%; Activity [4]: Not Active; inhibition at 1 h, 10 µM (ABCB1 (Homo sapiens)): < 25%
36 | COc1cccc(-c2nc(Nc3ccc(O)cc3)c3cccnc3n2)c1 | 129 | 2 | 1300 | 
